US20040092568A1, “Methods for the treatment, prevention and management of macular degeneration” (priority 2002, published 2004)

Key:
[1] = system: patients with macular degeneration; assay: Macular degeneration clinical study (adjuvant to verteporfin photodynamic therapy); format: in vivo; conditions: about 300 mg/day for 20 weeks as adjuvant to verteporfin photodynamic therapy
Method: Forty patients with macular degeneration are divided into two groups. The first group receives conventional treatment for closing the leaking choroidal vessels (characteristic of this disease) by photodynamic therapy with verteporfin (see for example Ophthalmol. 117:1329-1345 (1999). The second group receives the same conventional therapy with verteporfin with 1-(5-(1H-1,2,4-triazol-5-yl)(1H-indazol-3-yl))-3-(2-piperidylethoxy)benzene at about 300 mg/day as an adjuvant for 20 weeks.
The first group, without 1-(5-(1H 1,2,4-triazol-5-yl)( 1 H-indazol-3-yl))-3-(2-piperidylethoxy)benzene, however will experience progressive reperfusion of the ablated vessels several weeks after treatment. Progressive visual loss follows which requires the photodynamic therapy to be repeated.

[2] = system: rat ventral mesencephalan neurons; assay: [3H]Dopamine cell culture assay (6-OHDA neurotoxicity); format: cell-based; conditions: 6-OHDA 30 μM, uptake 22 hours later
Method: Cultures of dopaminergic neurons were prepared according to a modification of the procedure described by Raymon and Leslie (J. Neurochem. 62:1015-1024, 1994). Time-mated pregnant rats were sacrificed on embyronic day 14-15 (crown rump length 11-12 mm) and the embryos removed by cesarean section. The ventral mesencephalon, containing the dopaminergic neurons, was dissected from each embryo. Tissue pieces from approximately 48 embryos were pooled and dissociated both enzymatically and mechanically. An aliquot from the resulting cell suspension was counted and the cells were plated in high glucose DMEM/F12 culture medium with 10% fetal bovine serum at a density of 1×10^5 cells/well of a Biocoat poly-D-lysine-coated 96-well plate. The day following plating was considered 1 day in vitro (DIV). Cells were maintained in a stable environment at 37° C., 95% humidity, and 5% CO2. A partial medium change was performed at 3 DIV. […]
[^3H]Dopamine uptake is used as a measure of the health and integrity of dopaminergic neurons in culture (Prochiantz et al., PNAS 76: 5387-5391, 1979). […] Briefly, cells treated with 6-OHDA in the presence and absence of 5-amino-anthra(9, 1-cd)isothiazol-6-one were assessed in the uptake assay 22 hrs after exposure to 6-OHDA. […] Radioactivity was removed and the cultures were washed 3x with ice cold PBS. […]

[3] = Solubility in aqueous media; format: physicochemical
[4] = Brain-blood plasma distribution in vivo; parameters: species or system Sprague-Dawley rats; conditions: rat, 10 mg/kg intravenously, 2 hr post-dose
Method: 5-Amino-anthra(9,1-cd)isothiazol-6-one was administered intravenously (10 mg/kg) into the veins of Sprague-Dawley rats. After 2 hr, blood samples were obtained from the animals and their vascular systems were perfused with approximately 100 mL of saline to rid their brains of blood. The brains were removed from the animals, weighed, and homogenized in a 50 mL conical tube containing 10 equivalents (w/v) of methanol/saline (1:1) using a Tissue Tearer (Fischer Scientific). The homogenized material was extracted by adding 600 μL of cold methanol to 250 μL of brain homogenate vortexed for 30 sec and subjected to centrifugation for 5 min. After centrifugation, 600 μL of the resulting supernatant was transferred to a clean tube and evaporated at room temperature under reduced pressure to provide a pellet. […] The brain homogenate analysis samples, plasma analysis samples, and standard analysis samples were analyzed and compared using HPLC by injecting 100 μL of a sample onto a 5 μm C-18 Luna column (4.6 mm×150 mm, commercially available from Phenomenex of Torrance, Calif.) and eluting at 1 mL/min with a linear gradient of 30% aqueous acetonitrile containing 0.1% trifluoroacetic acid to 90% aqueous acetonitrile containing 0.1% trifluoroacetic acid over 8 minutes and holding at 90% aqueous acetonitrile containing 0.1 % trifluoroacetic acid for 3 min. with absorbance detection at 450 nm. […]

| solubility in aqueous media [3] | brain-drug concentration [4] | SMILES | effect on neovascular cascade / duration of photodynamic therapy effect [1] | protection of dopaminergic neurons from 6-OHDA ([3H]dopamine uptake) [2] |
| --- | --- | --- | --- | --- |
| – | – | c1cc(OCCC2CCCCN2)cc(-c2n[nH]c3ccc(-c4ncn[nH]4)cc23)c1 (stereo not shown) [1-(5-(1H-1,2,4-triazol-5-yl)(1H-indazol-3-yl))-3-(2-piperidylethoxy)benzene] | neovascular cascade is sufficiently hindered | – |
| limited solubility | approximately 65 nmole/g | Nc1ccc2snc3c2c1C(=O)c1ccccc1-3 [5-amino-anthra(9,1-cd)isothiazol-6-one] | – | protects rat ventral mesencephalan neurons from the toxic effects of 6-OHDA |
